Test results taken from patent publication US20150252048A1, “SUBSTITUTED N-(3-PYRIMIDIN-4-YL)PHENYL)ACRYLAMIDE ANALOGS AS TYROSINE RECEPTOR KINASE BTK INHIBITORS” (UNIVERSITY OF UTAH RESEARCH FOUNDATION, priority 2012, published 2015).
Values joined by “and” are separate entries in the source; they are usually repeats but may differ in a detail not shown here. Equal entries are not always repeated. Where two headings read alike, the source gives them in different places.

Key:
BTK = BTK (Homo sapiens, UniProt Q06187); assay: BTK kinase assay: time resolved-FRET (HTRF) assay; assay type: biochemical; set-up: recombinant full-length human BTK kinase with a (His)6 tag; (His)6; purchased Invitrogen Corporation, Carlsbad, Calif; conditions: 10 nM BTK, 60 μM ATP, 1 μM substrate
Chain of BTK (Q06187 whole entry): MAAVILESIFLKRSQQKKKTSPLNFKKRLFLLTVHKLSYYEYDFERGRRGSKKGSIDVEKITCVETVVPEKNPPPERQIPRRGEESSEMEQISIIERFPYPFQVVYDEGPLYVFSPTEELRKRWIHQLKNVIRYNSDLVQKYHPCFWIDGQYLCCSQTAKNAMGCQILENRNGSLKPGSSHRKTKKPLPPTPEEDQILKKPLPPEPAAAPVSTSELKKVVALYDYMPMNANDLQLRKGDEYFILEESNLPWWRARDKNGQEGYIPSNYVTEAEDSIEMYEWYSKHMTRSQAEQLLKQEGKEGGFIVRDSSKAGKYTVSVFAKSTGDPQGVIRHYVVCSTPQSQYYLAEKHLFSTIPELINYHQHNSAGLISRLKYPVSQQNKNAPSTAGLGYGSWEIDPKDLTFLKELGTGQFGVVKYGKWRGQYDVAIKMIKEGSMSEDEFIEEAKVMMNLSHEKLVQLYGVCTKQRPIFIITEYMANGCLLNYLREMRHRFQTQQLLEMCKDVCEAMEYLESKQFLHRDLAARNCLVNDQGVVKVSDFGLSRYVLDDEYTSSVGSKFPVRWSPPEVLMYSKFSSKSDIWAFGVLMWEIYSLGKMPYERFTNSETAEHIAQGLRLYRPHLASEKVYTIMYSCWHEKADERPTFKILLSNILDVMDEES
Method: Activity of compounds was routinely confirmed using a secondary assay as described herein. The secondary assay was a time resolved-FRET kinase assay. Test compound are diluted to desired concentrations in kinase reaction buffer and briefly incubated with BTK kinase (as described above; Invitrogen). The reaction is initiated by the addition of ATP and enzyme substrate, HTRF® KinEASE™-TK Substrate-biotin (Cisbio US, Bedford, Mass.). The composition of the reaction (10 μl) was: 1% v/v DMSO, 10 nM BTK, 60 μM ATP, and 1 μM substrate. After incubation at room temperature for 60 min, the enzyme reaction is stopped by EDTA-containing buffer, which also contains europium-labeled (Eu^3+-Cryptate) anti-phosphotyrosine antibody (Cisbio) and Streptavidin-XL665 (Cisbio). The europium-labeled antibody generates a time-resolved FRET signal with the Stepavidin-XL665, which binds to the biotinylated TK substrate through the streptavidin conjugate when the substrate is phosphorylated. After one hour incubation at room temperature, fluoresence was measured with excitation of 320 nm and dual emission of 615 and 665 nm on an EnVision microplate reader. Signal is expressed in terms of a TR-FRET ratio (665:615).
(§1) IC50 values are determined using GraphPad Prism 5 software. The data were entered as an X-Y plot into the software as percent inhibition for each concentration of the drug. The concentration values of the drug were log transformed and the nonlinear regression was carried out using the “sigmoidal dose-response (variable slope)” option within the GraphPad software to model the data and calculate IC50 values. The IC50 values reported are the concentration of drug at which 50% inhibition was reached.
(§2) Activity (IC50) was determined in the BTK assays describe herein below, i.e. either the ADP generation assay and/or the time-resolved FRET assay, and the data are shown in Table III. The compound number corresponds to the compound numbers used in Table I. In the table below, “ADP Assay” refers to the assay which measures production of ADP resulting from use of ATP by the kinase; and “HTRF Assay” refers to the time resolved-FRET kinase assay described in the examples. Multiple values in a given column indicate the results of more than one assay for the given compound. Representative data of the type used to determine the IC50 values for the ADP assay in Table III are shown in FIG. 8 for compounds 3, 4, and 5.

Pharmacokinetics in rat = assay type: in vivo, male Sprague Dawley rats; conditions: for AUC(0-t): read-out: AUC0-t
Method: The pharmacokinetic behavior of a representative disclosed compound, compound 3 (N-(3-(6-((3-morpholinophenyl)amino)-1H-pyrazolo[3,4-d]pyrimidin-4-yl)phenyl)acrylamide), which corresponds to compound 3 in Table I, was also evaluated in rat. A study was conducted using three male Sprague Dawley rats in each group as shown below:
The solution formulations were prepared as follows: (A) intravenous route (“i.v.”): a weighed quantity of 3 (10.45 mg) was transferred into a 10 mL clean glass vial. To this 0.231 mL of ethanol (4.5%) was added, vortexed and sonicated. To this 1.028 mL of propylene glycol (20%) was added, vortexed and sonicated. 1.543 mL of PEG400 (30%) was added, vortexed and sonicated. Finally 2.340 mL of water (45.5%) was added gradually, vortexed and sonicated to make a solution of 2 mg/mL concentration. The final solution was filtered using syringe filter (0.22 μm).; and (B) a weighed quantity of SC-1344 (27.43 mg) was transferred into a 10 mL clean glass vial. To this 0.304 mL of ethanol (4.5%) was added, vortexed and sonicated. To this 1.350 mL of propylene glycol (20%) was added, vortexed and sonicated. 2.024 mL of PEG400 (30%) was added, vortexed and sonicated. Finally 3.070 mL of water (45.5%) was added gradually, vortexed and sonicated to make a solution of 4 mg/mL concentration. The final solution was filtered using syringe filter (0.22 μm).
Bioanalysis was performed using fit-for-purpose LC-MS/MS method for the quantification of 3 in rat plasma samples. The calibration curve (CC) for the method consisted of nine non-zero calibration standards along with a double blank and zero standard samples. Study samples were analyzed along with two sets of quality control samples (6 QC samples; low, medium and high QC samples in triplicate). Briefly, the LC-MS/MS method used the following parameters: a) gradient mobile phase (Pump A: 0.1% Formic acid in water; Pump B: 100% methanol); b) XBridge C8, 50×4.6 mm, 3.5μ (Waters) column; c) 10 μL injection volume; d) 1.00 mL/min flow rate; e) 3.50 min run time; f) 10° C. sample cooler temperature; and g) 40° C. column oven temperature. The sample calibration curve was 1.02-1023 ng/mL, with an internal standard (telmisartan) at 0.2 μg/mL. Briefly, biological samples were prepared as follows: 50 μL of sample was mixed with 150 μL of internal standard, then mixture was vortexed for 5 min at 800 rpm, followed by centrifugation at 4000 rpm for 5 min; 150 μL of the sample supernatant was transferred into a separate tube and diluted with 75 μL of methanol: water (1:1), followed by injection into LC/MS/MS.
Plasma pharmacokinetic parameters were calculated using the non-compartmental analysis tool of Phoenix software (Version 6.3) and were determined from individual animals in each group. The area under the plasma concentration-time curve (AUC0-t and AUCinf), elimination half-life (T1/2), clearance (CL), volume of distribution (Vss) and Mean residence time (MRT) were calculated from intravenous group. The peak plasma concentration (Cmax), time to achieve peak plasma concentration (Tmax), AUC0-t and AUCinf, and absolute oral bioavailability (F) were calculated from the oral group.
The mean plasma concentration-time profiles are shown in FIGS. 10 and 11, i.e. the mean concentration values of the individual values obtained from each rat in the study group at the indicated time points.

[1] = target: T1, recombinant full-length human BTK kinase (Homo sapiens, UniProt Q06187); assay: BTK kinase assay: ADP generation assay (ADP-Glo); assay type: biochemical; conditions: 60 nM BTK, MBP substrate, 60 min
T1 construct: recombinant full-length human BTK kinase with a (His)6 tag; (His)6; purchased Invitrogen Corporation, Carlsbad, Calif
T1 sequence (Q06187 whole entry): as above
Method: The primary assay for compound inhibitory activity was the ADP generation assay described herein. Test compounds were diluted to desired concentrations in kinase reaction buffer and briefly incubated with recombinant full-length human BTK kinase with a (His)6 tag (81.3 kDa; Invitrogen Corporation, Carlsbad, Calif.). The assay as described is based on volumes used in a standard 384 well format using solid, white-wall plates. The reaction was subsequently initiated by the addition of ATP and myelin basic protein (MBP) substrate (Millipore Corporation, Waltham, Mass.). Composition of the assay reaction mixture ([…]) was: 5% v/v DMSO, 60 nM BTK, 1.6 µM ATP, and 20 µM MBP substrate. After incubation at room temperature for 60 min, […] (Promega Corporation, Madison, Wis.) was added to each well and incubated for an additional 40 minutes. The reagent stopped the kinase reaction and depleted the unconsumed ATP. Kinase Detection reagent ([…]; Promega Corporation) was then added to each well. The Kinase Detection reagent comprises reagents to convert ADP to ATP and provide luciferase and luciferin to detect ATP. Luminescence was measured on an EnVision microplate reader (PerkinElmer). The amount of luminescence from each reaction is directly correlated with BTK kinase activity. Percent inhibition and IC50 values were calculated by comparing enzyme activity in drug-treated wells to the appropriate controls.
as §1, §2

[2] = Microsomal stability, positive control assays; assay type: in vitro ADME; conditions: microsomes used in the study
Method: Data were also obtained for the stability of Compound 3 when incubated with a microsomal preparation. Drug metabolism can occur, at least in part, in cellular microsomes, and thus the assay assesses the stability of drug to metabolic modification. The concentration of compound 3 was 1 μM in the assay system and the indicated microsomes were present at 0.5 mg total protein per milliliter. The concentration of intact drug was determined at the indicated timepoints using a LC-MS/MS assay. The enzyme activity of the microsomes used in this study were assessed using a positive control, testosterone.

[3] = male, Sprague Dawley, plasma, IV 5 mg/kg, solution

Compound: C=CC(=O)Nc1cccc(-c2nc(Nc3cccc(N4CCOCC4)c3)nc3[nH]ccc23)c1 [Compound 8, N-(3-(2-((3-morpholinophenyl)amino)-7H-pyrrolo[2,3-d]pyrimidin-4-yl)phenyl)acrylamide]
- IC50 (BTK): > 10000 nM

Compound: C=CC(=O)Nc1cccc(-c2nc(Nc3cccc(N4CCNCC4)c3)nc3[nH]ncc23)c1 [Compound 9, N-(3-(6-((3-(piperazin-1-yl)phenyl)amino)-1H-pyrazolo[3,4-d]pyrimidin-4-yl)phenyl)acrylamide]
- IC50 (BTK): 14 nM

Compound: C=CC(=O)Nc1cccc(-c2nc(Nc3cccc(N4CCOCC4)c3)nc3[nH]ncc23)c1 [SC-1344, N-(3-(6-((3-morpholinophenyl)amino)-1H-pyrazolo[3,4-d]pyrimidin-4-yl)phenyl)acrylamide]
- Vss relative to total body water normalized to body weight (0.7 L/kg) (Pharmacokinetics in rat; IV 5 mg/kg): approximately 11 fold
- clearance (Pharmacokinetics in rat; [3]): 79.7 mL/min/kg
- half-life (Pharmacokinetics in rat; [3]): 2.71 h
- AUC(0-t) (Pharmacokinetics in rat; [3]): 1060 ng·h/mL
- Vd (Pharmacokinetics in rat; male, Sprague Dawley, plasma, IV 5 mg/kg, solution, read-out: Vss): 7.91 L/kg
- bioavailability (Pharmacokinetics in rat; male, Sprague Dawley, plasma, PO 20 mg/kg vs IV 5 mg/kg, AUC0-t and nominal doses used, read-out: F (absolute oral bioavailability)): 2.44%
- AUC(0-t) (Pharmacokinetics in rat; male, Sprague Dawley, plasma, PO 20 mg/kg, solution): 104 ng·h/mL
- Cmax (Pharmacokinetics in rat; male, Sprague Dawley, plasma, PO 20 mg/kg, solution, read-out: Cmax): 23.1 ng/mL

Compound: C=CC(=O)Nc1cccc(-c2nc(Nc3cccc(N4CCNCC4)c3)ncc2Cl)c1 [Compound 10, N-(3-(5-chloro-2-((3-(piperazin-1-yl)phenyl)amino)pyrimidin-4-yl)phenyl)acrylamide]
- IC50 (BTK): 70 nM

Compound: C=CC(=O)Nc1cccc(-c2nc(Nc3cccc(N4CCN(C)CC4)c3)ncc2Cl)c1 [Compound 1, N-(3-(5-chloro-2-((3-(4-methylpiperazin-1-yl)phenyl)amino)pyrimidin-4-yl)phenyl)acrylamide]
- IC50 (BTK): 14.2 nM
- IC50 [1]: 29 nM and 14 nM

Compound: C=CC(=O)Nc1cccc(-c2nc(Nc3cccc(N4CCOCC4)c3)ncc2Cl)c1 [Compound 2, N-(3-(5-chloro-2-((3-morpholinophenyl)amino)pyrimidin-4-yl)phenyl)acrylamide]
- IC50 [1]: 70 nM

Compound: C=CC(=O)Nc1cccc(-c2nc(Nc3cccc(N4CCOCC4)c3)nc3[nH]nc(Cl)c23)c1 [Compound 5, N-(3-(3-chloro-6-((3-morpholinophenyl)amino)-1H-pyrazolo[3,4-d]pyrimidin-4-yl)phenyl)acrylamide]
- IC50 (BTK): 175 nM
- IC50 [1]: 96 nM

Compound: C=CC(=O)Nc1cc(-c2nc(Nc3cccc(N4CCOCC4)c3)nc3[nH]nc(Cl)c23)ccc1Cl [Compound 6, N-(2-chloro-5-(3-chloro-6-((3-morpholinophenyl)amino)-1H-pyrazolo[3,4-d]pyrimidin-4-yl)phenyl)acrylamide]
- IC50 (BTK): > 100000 nM
- IC50 [1]: ≥ 100000 nM

Compound: C=CC(=O)Nc1cccc(-c2nc(Nc3cccc(N4CCN(C)CC4)c3)nc3[nH]ncc23)c1 [Compound 4, N-(3-(6-((3-(4-methylpiperazin-1-yl)phenyl)amino)-1H-pyrazolo[3,4-d]pyrimidin-4-yl)phenyl)acrylamide]
- IC50 (BTK): 9.1 nM
- IC50 [1]: 9 nM

Compound: C=CC(=O)Nc1cccc(-c2nc(Nc3cccc(N4CCOCC4)c3)nc3[nH]cc(Cl)c23)c1 [Compound 7, N-(3-(5-chloro-2-((3-morpholinophenyl)amino)-7H-pyrrolo[2,3-d]pyrimidin-4-yl)phenyl)acrylamide]
- IC50 (BTK): 175 nM
- IC50 [1]: 96 nM

Compound: C[C@]12CC[C@H]3[C@@H](CCC4=CC(=O)CC[C@@]43C)[C@@H]1CC[C@@H]2O [testosterone]
- Disappearance of positive control in microsomes [2]: rapid disappearance
